Reference: patent publication US10526337B2, “Heteroaryl derivative or pharmaceutically acceptable salt thereof, preparation method therefor, and pharmaceutical composition for preventing or treating diseases associated with PI3 kinases, containing same as active ingredient” (KOREA RESEARCH INSTITUTE OF CHEMICAL TECHNOLOGY, priority 2015, dated 2020)
pIC50: −log10 of the molar value.

Assays:
[1] = biological target: T1, PI3 Kinase (p120γ) (h) (Homo sapiens, UniProt P48736); assay: Inhibition of phosphatidylinositol 3-kinase gamma (PI3K γ), pAkt Western blotting in C5a-stimulated RAW264.7 macrophages; type: cell-based, mouse; details: ATP=10 uM, sample concentration=100 nM
T1 construct: endogenous in cells; host or cells: RAW264.7
T1 sequence (P48736 whole entry): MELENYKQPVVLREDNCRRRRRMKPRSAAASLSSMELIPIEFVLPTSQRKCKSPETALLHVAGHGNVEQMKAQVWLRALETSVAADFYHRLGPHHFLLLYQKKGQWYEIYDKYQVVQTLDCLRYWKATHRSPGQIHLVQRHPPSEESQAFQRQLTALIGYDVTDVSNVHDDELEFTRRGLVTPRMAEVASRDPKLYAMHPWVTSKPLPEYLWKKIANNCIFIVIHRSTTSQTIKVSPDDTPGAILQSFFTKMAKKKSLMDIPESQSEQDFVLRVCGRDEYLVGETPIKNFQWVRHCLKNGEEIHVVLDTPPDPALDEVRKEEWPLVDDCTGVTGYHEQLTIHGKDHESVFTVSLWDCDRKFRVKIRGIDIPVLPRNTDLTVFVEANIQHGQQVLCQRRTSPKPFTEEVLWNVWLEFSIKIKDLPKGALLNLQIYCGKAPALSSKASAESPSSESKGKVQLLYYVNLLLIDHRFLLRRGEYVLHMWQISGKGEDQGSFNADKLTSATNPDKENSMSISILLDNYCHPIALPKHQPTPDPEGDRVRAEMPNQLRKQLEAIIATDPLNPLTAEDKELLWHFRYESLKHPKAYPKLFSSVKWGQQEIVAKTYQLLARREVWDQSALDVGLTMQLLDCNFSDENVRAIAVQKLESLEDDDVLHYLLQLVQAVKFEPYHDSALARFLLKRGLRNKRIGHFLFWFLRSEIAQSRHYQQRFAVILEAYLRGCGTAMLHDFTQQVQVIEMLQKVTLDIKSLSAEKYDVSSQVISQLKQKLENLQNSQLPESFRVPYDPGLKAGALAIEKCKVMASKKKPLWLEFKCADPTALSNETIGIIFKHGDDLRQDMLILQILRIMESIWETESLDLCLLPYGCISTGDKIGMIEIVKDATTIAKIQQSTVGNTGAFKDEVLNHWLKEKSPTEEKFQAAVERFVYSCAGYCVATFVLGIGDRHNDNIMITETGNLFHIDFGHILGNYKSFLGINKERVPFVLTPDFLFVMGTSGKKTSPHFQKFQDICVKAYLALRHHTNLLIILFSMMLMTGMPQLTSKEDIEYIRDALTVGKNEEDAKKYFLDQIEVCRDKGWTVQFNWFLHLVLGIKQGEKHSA
Experimental: (§1) The stimulated cells were transferred in a 1.5 mL tube, followed by centrifugation at 3000 rpm for 1 minute. 100 μL of RIPA buffer (radioimmunoprecipitation assay buffer, 50 mM Tris-HCl, 5 mM EDTA, 150 mM NaCl, 1% NP-40, 1 mM PMSF, pH 8.0; ELPIS, Korea) was added thereto, which was stored in a 4° C. refrigerator for 12 hours. Centrifugation was performed at 4° C. at 14,000 rpm for 20 minutes. The supernatant was transferred into a new 1.5 mL tube. Protein was quantified by BCA (bicinchoninic acid) method and samples were prepared. The composition of the sample was as follows: sample buffer (ELPIS, EBA-1052) 5×, protein 10 μg, and 1× sample buffer to make the total volume 20 μL. The sample was heated at 100° C. for 5 minutes. The evaporated water vapor was condensed in a refrigerator. The liquid stained on the wall was fallen down by centrifugation for a few seconds. The sample proceeded to 10% SDS (Sodium Dodecyl Sulfate) acrylamide gel for separation. The separated protein was transferred onto PVDF (poly-vinyl difluoride) membrane, followed by reaction with pAkt (phospho protein kinase B) antibody (Ser473 or Thr308; Cell signaling, 9271s or 13038s) for 12 hours at 4° C. The membrane was washed with TBST (Tris-Buffered Saline with Tween 20, 10 mM Tris-HCl, pH 7.5, 150 mM NaCl, 0.1% Tween-20) three times for 5 minutes each, to which the secondary antibody (rabbit antibody, Santacruz, sc-2004) was added, followed by reaction at room temperature for 2 hours. The membrane was washed with TBST three times for 10 minutes each, to which ECL (enhanced chemiluminescence, Thermo, NCI34095KR) was sprayed. Bands were investigated by using LAS-3000.
The inhibition of phosphatidylinositol 3 kinase gamma (PI3K γ) by those compounds prepared in Examples 1˜98 was investigated by the following experiment. The inhibition activity of each compound was measured in the following conditions: ATP=10 uM, and sample concentration=100 nM.
(§2) Macrophages (RAW264.7) cultured in DMEM (Dulbecco's Modified Eagle Medium, Hyclon, SH30243.01) supplemented with 10% fetal bovine serum (Hyclon, USA) were distributed in a 12-well plate at the density of 1,000,000 cells/well. The cells were stabilized in a 37° C. CO2 for 24 hours and then treated with each compound for 1 and half hours. The cells were treated with 10 ng/mL of C5a (complement component 5a, 10 μg/mL; R&D, 2150-C5) to increase the intracellular activity of PI3K gamma. 5 minutes later, the medium was discarded and the cells were washed with cold PBS (phosphate buffered saline, Gibco, 14190-250). PBS was then eliminated completely by using a pipette. Western blotting was performed according to the same manner as described in step 2 of Experimental Example 1 to evaluate the intracellular PI3K gamma activity.

[2] = biological target: T2, PI3 Kinase (p110δ/p85α) (h) (Homo sapiens, UniProt O00329); assay: Inhibition of phosphatidylinositol 3-kinase delta (PI3K δ), pAkt Western blotting in IgM-stimulated Raji cells; type: cell-based; details: ATP=10 uM, sample concentration=100 nM
T2 construct: endogenous in cells; host or cells: Raji
T2 sequence (O00329 whole entry): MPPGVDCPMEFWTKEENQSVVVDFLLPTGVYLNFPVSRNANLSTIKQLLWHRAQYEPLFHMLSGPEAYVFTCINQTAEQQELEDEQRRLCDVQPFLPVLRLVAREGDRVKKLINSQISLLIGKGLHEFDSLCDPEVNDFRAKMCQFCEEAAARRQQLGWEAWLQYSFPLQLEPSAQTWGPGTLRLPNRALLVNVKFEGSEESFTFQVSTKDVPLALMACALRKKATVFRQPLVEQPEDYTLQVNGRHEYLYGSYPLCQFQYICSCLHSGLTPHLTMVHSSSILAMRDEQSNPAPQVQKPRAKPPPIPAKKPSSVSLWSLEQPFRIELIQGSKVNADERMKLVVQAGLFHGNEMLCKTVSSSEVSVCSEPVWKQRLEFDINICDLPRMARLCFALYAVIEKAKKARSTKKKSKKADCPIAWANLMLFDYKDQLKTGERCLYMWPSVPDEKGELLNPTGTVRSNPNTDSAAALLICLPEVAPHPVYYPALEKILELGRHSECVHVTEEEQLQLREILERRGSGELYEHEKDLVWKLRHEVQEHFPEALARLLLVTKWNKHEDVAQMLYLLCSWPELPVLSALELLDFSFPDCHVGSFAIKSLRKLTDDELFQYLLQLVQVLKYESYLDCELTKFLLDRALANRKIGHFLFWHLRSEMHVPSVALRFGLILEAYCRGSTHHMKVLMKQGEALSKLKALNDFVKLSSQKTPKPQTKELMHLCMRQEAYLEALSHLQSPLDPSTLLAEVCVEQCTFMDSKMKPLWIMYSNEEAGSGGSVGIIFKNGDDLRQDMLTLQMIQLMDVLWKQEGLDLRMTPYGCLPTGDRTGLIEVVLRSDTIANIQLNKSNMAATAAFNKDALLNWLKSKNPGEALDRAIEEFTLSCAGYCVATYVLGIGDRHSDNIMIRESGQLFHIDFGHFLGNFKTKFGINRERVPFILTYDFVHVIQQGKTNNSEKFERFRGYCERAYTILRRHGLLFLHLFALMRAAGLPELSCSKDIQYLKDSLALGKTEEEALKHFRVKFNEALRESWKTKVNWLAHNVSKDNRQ
T2 sequence (P27986 whole entry partner): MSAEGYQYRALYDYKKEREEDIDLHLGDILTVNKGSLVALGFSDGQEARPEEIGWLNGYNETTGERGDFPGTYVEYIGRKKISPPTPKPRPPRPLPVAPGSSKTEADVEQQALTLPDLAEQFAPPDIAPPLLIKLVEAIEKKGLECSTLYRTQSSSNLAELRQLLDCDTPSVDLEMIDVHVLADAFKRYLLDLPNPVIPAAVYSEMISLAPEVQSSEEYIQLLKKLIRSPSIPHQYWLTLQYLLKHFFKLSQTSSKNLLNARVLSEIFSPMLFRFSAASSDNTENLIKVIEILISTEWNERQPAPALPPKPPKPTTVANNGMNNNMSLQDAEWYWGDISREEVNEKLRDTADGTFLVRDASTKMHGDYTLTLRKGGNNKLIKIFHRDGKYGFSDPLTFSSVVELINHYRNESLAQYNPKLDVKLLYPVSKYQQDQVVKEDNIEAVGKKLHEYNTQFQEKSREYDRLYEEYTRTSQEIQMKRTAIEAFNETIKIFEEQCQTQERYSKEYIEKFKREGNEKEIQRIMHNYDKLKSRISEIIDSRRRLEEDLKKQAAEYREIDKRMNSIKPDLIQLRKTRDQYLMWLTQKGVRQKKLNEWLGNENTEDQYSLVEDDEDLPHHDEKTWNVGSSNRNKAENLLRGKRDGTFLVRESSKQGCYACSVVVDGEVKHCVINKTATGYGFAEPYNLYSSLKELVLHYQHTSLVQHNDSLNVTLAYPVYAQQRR
Experimental: as §1
The inhibition of phosphatidylinositol 3 kinase delta (PI3K δ) by those compounds prepared in Examples 1˜98 was investigated by the following experiment. The inhibition activity of each compound was measured in the following conditions: ATP=10 uM, and sample concentration=100 nM.
as §2, with “Raji cells” for “Macrophages (RAW264.7)”, “RPMI1640 (Hyclone, SH30027.02)” for “DMEM (Dulbecco's Modified Eagle Medium, Hyclon, SH30243.01)”, “0.25 μg/mL” for “10 ng/mL”, “IgM (immunoglobulin M, Southern Biotech, USA)” for “C5a (complement component 5a, 10 μg/mL; R&D, 2150-C5)”, “delta. 30” for “gamma. 5”, “delta” for “gamma”

Row | Compound | pIC50 [1] | pIC50 [2]
1 | CC(C)N1CNc2ncnc(N[C@@H](C)c3cc4cccc(Cl)c4c(=O)n3-c3ccccc3)c2C1=O [Example 64, (S)-5-(1-(8-chloro-1-oxo-2-phenyl-1,2-dihydroisoquinoline-3-yl)ethylamino)-3-isopropyl-2,3-dihydropyrimido[4,5-d]pyrimidine-4(1H)-one] | < 6.30 | < 6.30
2 | C[C@H](Nc1ncnc2[nH]cnc(=O)c12)c1nc2cccc(Cl)c2c(=O)n1-c1cccnc1 [Example 67, (S)-5-((1-(5-chloro-4-oxo-3-(pyridine-3-yl)-3,4-dihydroquinazoline-2-yl)ethyl)amino)pyrimido[4,5-d]pyrimidine-4(1H)-one] | < 6.30 | < 6.30
3 | Nc1nc(N2CCC[C@H]2c2nn3ccc(Cl)c3c(=O)n2-c2cccc(F)c2)c2c(=O)nc[nH]c2n1 [Example 96, (S)-7-amino-5-(2-(5-chloro-3-(3-fluorophenyl)-4-oxo-3,4-dihydropyrrolo[2,1-f][1,2,4]triazine-2-yl)pyrrolidine-1-yl)pyrimido[4,5-d]pyrimidine-4(1H)-one] | < 6.30 | < 6.30
4 | O=c1nc[nH]c2ncnc(N3CCC[C@H]3c3cc4cccc(Cl)c4c(=O)n3-c3cccnc3)c12 [Example 75, (S)-5-(2-(8-chloro-1-oxo-2-(pyridine-3-yl)-1,2-dihydroisoquinoline-3-yl)pyrrolidine-1-yl)pyrimido[4,5-d]pyrimidine-4(1H)-one] | < 6.30 | 6.30 to 8.00
5 | Nc1nc(N2CCC[C@H]2c2cc3cccc(Cl)c3c(=O)n2-c2ccccc2)c2c(=O)nc[nH]c2n1 [Example 94, (S)-7-amino-5-(2-(8-chloro-1-oxo-2-phenyl-1,2-dihydroisoquinoline-3-yl)pyrrolidine-1-yl)pyrimido[4,5-d]pyrimidine-4(1H)-one] | 6.30 to 8.00 | 6.30 to 8.00
6 | CC[C@H](Nc1ncnc2c1C(=O)N(C)CN2)c1nc2cccc(F)c2c(=O)n1-c1ccccc1 [Example 41, (S)-5-((1-(5-fluoro-4-oxo-3-phenyl-3,4-dihydroquinazoline-2-yl)propyl)amino)-3-methyl-2,3-dihydropyrimido[4,5-d]pyrimidine-4(1H)-one] | 6.30 to 8.00 | 6.30 to 8.00
7 | CN1CNc2nc(N)nc(N3CCC[C@H]3c3nc4cccc(Cl)c4c(=O)n3-c3cccc(F)c3)c2C1=O [Example 57, (S)-7-amino-5-(2-(5-chloro-3-(3-fluorophenyl)-4-oxo-3,4-dihydroquinazoline-2-yl)pyrrolidine-1-yl)-3-methyl-2,3-dihydropyrimido[4,5-d]pyrimidine-4(1H)-one] | 6.30 to 8.00 | < 6.30
8 | C[C@H](Nc1nc(N)nc2[nH]cnc(=O)c12)c1nc2cccc(Cl)c2c(=O)n1-c1ccccc1 [Example 81, (S)-7-amino-5-((1-(5-chloro-4-oxo-3-phenyl-3,4-dihydroquinazoline-2-yl)ethyl)amino)pyrimido[4,5-d]pyrimidine-4(1H)-one] | 6.30 to 8.00 | 6.30 to 8.00
9 | Cc1cccc(-n2c([C@@H]3CCCN3c3nc(N)nc4c3C(=O)N(C)CN4)nc3cccc(Cl)c3c2=O)c1 [Example 58, (S)-7-amino-5-(2-(5-chloro-4-oxo-3-(m-tolyl)-3,4-dihydroquinazoline-2-yl)pyrrolidine-1-yl)-3-methyl-2,3-dihydropyrimido[4,5-d]pyrimidine-4(1H)-one] | < 6.30 | < 6.30
10 | C[C@H](Nc1ncnc2[nH]cnc(=O)c12)c1nc2cccc(Cl)c2c(=O)n1-c1cccc(F)c1 [Example 68, (S)-5-((1-(5-chloro-3-(3-fluorophenyl)-4-oxo-3,4-dihydroquinazoline-2-yl)ethyl)amino)pyrimido[4,5-d]pyrimidine-4(1H)-one] | < 6.30 | < 6.30

Continued, values first:

Row | pIC50 [1] | pIC50 [2] | Compound
11 | 6.30 to 8.00 | > 8.00 | C[C@H](Nc1nc(N)nc2c1C(=O)N(C)CN2)c1nc2cccc(Cl)c2c(=O)n1-c1cccnc1 [Example 49, (S)-7-amino-5-((1-(5-chloro-4-oxo-3-(pyridine-3-yl)-3,4-dihydroquinazoline-2-yl)ethyl)amino)-3-methyl-2,3-dihydropyrimido[4,5-d]pyrimidine-4(1H)-one]
12 | 6.30 to 8.00 | > 8.00 | Cc1cccc(-n2c([C@H](C)Nc3nc(N)nc4c3C(=O)N(C)CN4)nc3cccc(Cl)c3c2=O)c1 [Example 51, (S)-7-amino-5-((1-(5-chloro-4-oxo-3-(m-tolyl)-3,4-dihydroquinazoline-2-yl)ethyl)amino)-3-methyl-2,3-dihydropyrimido[4,5-d]pyrimidine-4(1H)-one]
13 | 6.30 to 8.00 | 6.30 to 8.00 | CC[C@H](Nc1nc(N)nc2c1C(=O)N(C)CN2)c1nc2cccc(F)c2c(=O)n1-c1ccccc1 [Example 54, (S)-7-amino-5-((1-(5-fluoro-4-oxo-3-phenyl-3,4-dihydroquinazoline-2-yl)propyl)amino)-3-methyl-2,3-dihydropyrimido[4,5-d]pyrimidine-4(1H)-one]
14 | 6.30 to 8.00 | 6.30 to 8.00 | CN1CNc2ncnc(N3CCC[C@H]3c3nn4ccc(Cl)c4c(=O)n3-c3ccccc3)c2C1=O [Example 47, (S)-5-(2-(5-chloro-4-oxo-3-phenyl-3,4-dihydropyrrolo[2,1-f][1,2,4]triazine-2-yl)pyrrolidine-1-yl)-3-methyl-2,3-dihydropyrimido[4,5-d]pyrimidine-4(1H)-one]
15 | 6.30 to 8.00 | > 8.00 | C[C@H](Nc1ncnc2c1C(=O)N(C)CN2)c1nc2cccc(Cl)c2c(=O)n1-c1ccccc1 [Example 34, (S)-5-((1-(5-chloro-4-oxo-3-phenyl-3,4-dihydroquinazoline-2-yl)ethyl)amino)-3-methyl-2,3-dihydropyrimido[4,5-d]pyrimidine-4(1H)-one]
16 | 6.30 to 8.00 | 6.30 to 8.00 | Cc1cccc(-n2c([C@H](C)Nc3nc(N)nc4[nH]cnc(=O)c34)nc3cccc(Cl)c3c2=O)c1 [Example 84, (S)-7-amino-5-((1-(5-chloro-4-oxo-3-(m-tolyl)-3,4-dihydroquinazoline-2-yl)ethyl)amino)pyrimido[4,5-d]pyrimidine-4(1H)-one]
